{
  "source": "paper PMC5715351",
  "about": "“Cysteine and histidine residues are involved in Escherichia coli Tn21 MerE methylmercury transport” (FEBS Open Bio, 2017)",
  "biological_target": "MerE (Shigella flexneri, UniProt Q7AKA4)",
  "sequence (Q7AKA4 whole entry)": "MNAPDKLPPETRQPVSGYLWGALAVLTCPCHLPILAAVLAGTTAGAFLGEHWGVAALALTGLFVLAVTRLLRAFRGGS",
  "details": "5 uM compound, LB broth with 100 ug/mL chloramphenicol and 100 uM EDTA, 37 °C",
  "data": [
    {"smiles": "[CH3][Hg][Cl]", "note": "[CH3Hg(I)]", "values": [
      {"measurement": "uptake of 14C-labelled compound by E. coli XL1-Blue cells, filtration and scinti", "result": "cells with pE4 took up significantly more CH3Hg(I) than control cells"}
    ]}
  ]
}
